Assay results reported in a compilation of properties of binary mixtures (doi:10.1021/acs.jced.0c00987).

Experiment: xn = mol fraction of the nth substance listed
Conditions: 100 kPa

CCOS(=O)(=O)[O-].CC[n+]1ccn(C)c1 + OCCO
viscosity (293.15 K, x1 = 0.003): 20.6 mPa·s
viscosity (293.15 K, x1 = 0.008): 20.6 mPa·s
viscosity (293.15 K, x1 = 0.014): 20.3 mPa·s
viscosity (293.15 K, x2 = 0): 123.5 mPa·s
viscosity (293.15 K, x2 = 0.304): 54.6 mPa·s
viscosity (293.15 K, x2 = 0.506): 32.3 mPa·s
viscosity (293.15 K, x2 = 0.597): 25.8 mPa·s
viscosity (293.15 K, x2 = 0.7): 20.9 mPa·s
viscosity (293.15 K, x2 = 0.792): 18.4 mPa·s
viscosity (293.15 K, x2 = 0.851): 17.8 mPa·s
viscosity (293.15 K, x2 = 0.899): 18 mPa·s
viscosity (293.15 K, x2 = 0.938): 18.6 mPa·s
viscosity (293.15 K, x2 = 0.972): 19.7 mPa·s
electrical conductivity (298.15 K, x1 = 0.003): 0.0213 S/m
viscosity (298.15 K, x1 = 0.003): 16.7 mPa·s
electrical conductivity (298.15 K, x1 = 0.008): 0.057 S/m
viscosity (298.15 K, x1 = 0.008): 16.7 mPa·s
electrical conductivity (298.15 K, x1 = 0.014): 0.096 S/m
viscosity (298.15 K, x1 = 0.014): 16.5 mPa·s
electrical conductivity (298.15 K, x2 = 0.304): 0.68 S/m
viscosity (298.15 K, x2 = 0.304): 44.5 mPa·s
electrical conductivity (298.15 K, x2 = 0.406): 0.79 S/m
viscosity (298.15 K, x2 = 0.406): 34.4 mPa·s
electrical conductivity (298.15 K, x2 = 0.506): 0.86 S/m
viscosity (298.15 K, x2 = 0.506): 26.9 mPa·s
electrical conductivity (298.15 K, x2 = 0.7): 0.97 S/m
viscosity (298.15 K, x2 = 0.7): 17.6 mPa·s
electrical conductivity (298.15 K, x2 = 0.792): 0.87 S/m
viscosity (298.15 K, x2 = 0.792): 15.4 mPa·s
electrical conductivity (298.15 K, x2 = 0.899): 0.53 S/m
viscosity (298.15 K, x2 = 0.899): 14.9 mPa·s
electrical conductivity (298.15 K, x2 = 0.938): 0.36 S/m
viscosity (298.15 K, x2 = 0.938): 15.3 mPa·s
electrical conductivity (298.15 K, x2 = 0.972): 0.178 S/m
viscosity (298.15 K, x2 = 0.972): 16.1 mPa·s
viscosity (303.15 K, x1 = 0.001): 13.5 mPa·s
viscosity (303.15 K, x1 = 0.008): 13.7 mPa·s
viscosity (303.15 K, x1 = 0.014): 13.5 mPa·s
viscosity (303.15 K, x2 = 0): 75.7 mPa·s
viscosity (303.15 K, x2 = 0.304): 36.7 mPa·s
viscosity (303.15 K, x2 = 0.406): 28.7 mPa·s
viscosity (303.15 K, x2 = 0.506): 22.7 mPa·s
viscosity (303.15 K, x2 = 0.597): 18.3 mPa·s
viscosity (303.15 K, x2 = 0.7): 14.9 mPa·s
viscosity (303.15 K, x2 = 0.851): 12.5 mPa·s
viscosity (303.15 K, x2 = 0.899): 12.4 mPa·s
viscosity (303.15 K, x2 = 0.938): 12.7 mPa·s
viscosity (303.15 K, x2 = 0.972): 13.2 mPa·s
electrical conductivity (313.15 K, x1 = 0.001): 0.0161 S/m
viscosity (313.15 K, x1 = 0.001): 9.345 mPa·s
electrical conductivity (313.15 K, x1 = 0.014): 0.162 S/m
viscosity (313.15 K, x1 = 0.014): 9.4 mPa·s
viscosity (313.15 K, x2 = 0): 49.7 mPa·s
electrical conductivity (313.15 K, x2 = 0.304): 1.13 S/m
viscosity (313.15 K, x2 = 0.304): 25.1 mPa·s
electrical conductivity (313.15 K, x2 = 0.506): 1.36 S/m
viscosity (313.15 K, x2 = 0.506): 16.6 mPa·s
electrical conductivity (313.15 K, x2 = 0.597): 1.48 S/m
viscosity (313.15 K, x2 = 0.597): 13.5 mPa·s
electrical conductivity (313.15 K, x2 = 0.7): 1.51 S/m
viscosity (313.15 K, x2 = 0.7): 11 mPa·s
electrical conductivity (313.15 K, x2 = 0.792): 1.38 S/m
viscosity (313.15 K, x2 = 0.792): 9.59 mPa·s
electrical conductivity (313.15 K, x2 = 0.851): 1.16 S/m
viscosity (313.15 K, x2 = 0.851): 9.08 mPa·s
electrical conductivity (313.15 K, x2 = 0.899): 0.86 S/m
viscosity (313.15 K, x2 = 0.899): 8.92 mPa·s
electrical conductivity (313.15 K, x2 = 0.972): 0.299 S/m
viscosity (313.15 K, x2 = 0.972): 9.28 mPa·s
